By inhibition is commonly meant the drop in the measured response relative to a control, in per cent. As a reminder, the IC50 is the midpoint of a concentration-inhibition curve.

For 16 compounds, inhibition, IC50 and Activity results are on record in ChEMBL document CHEMBL5532671, “Leucosceptrane Sesterterpenoids as a New Type of Natural Immunosuppressive Agents in Treating Sepsis” (J Med Chem, 2024).

The source made the active and inactive calls. No cut-off for these calls is given here.

Data set [1] concerns T-cell. Description: Inhibition of proliferation of C57BL/6 female mouse T-cells isolated from spleen at 20 uM relative to control. It is filed as functional. The conditions noted are these: C57BL/6, T-cell.
The subject of data set [2] is T-cell. Put plainly: Immunosuppressive activity in C57BL/6 female mouse T-cells isolated from spleen assessed as inhibition of LPS-induced IFN-gamma secretion at 20 uM treated for 48 hrs by ELISA based assay relative to control. It is filed as functional. The conditions noted are these: C57BL/6, T-cell. Background: An ELISA detects its analyte on a solid surface through an enzyme-linked reagent.

The test system of data set [3] is T-cell. Description: Immunosuppressive activity in C57BL/6 female mouse T-cells isolated from spleen assessed as inhibition of LPS-induced IFN-gamma secretion treated for 48 hrs by ELISA based assay. The format is functional. The following applies: C57BL/6, T-cell.
The test system of data set [4] is Mus musculus. Description: Reduction in TNF-alpha level in LPS-induced sepsis mouse model peripheral blood at 25 mg/kg, IG measured after 12 hrs by ELISA based assay. It is filed as functional, organism-based.
The test system of data set [5] is Mus musculus. Put plainly: Reduction in IL-6 level in LPS-induced sepsis mouse model peripheral blood at 50 mg/kg, IG measured after 12 hrs by ELISA based assay. The format is functional, organism-based.
Data set [6] relates to RAW264.7. Description: Inhibition of cytokine secretion in mouse RAW264.7 cells assessed as suppression of LPS-induced IL-6 secretion at 40 uM measured after 48 hrs by ELISA based assay. The format is functional, cell-based.
The subject of data set [7] is RAW264.7. Put plainly: Antiproliferative activity against mouse RAW264.7 cells at 2.5 to 40 uM. The following applies: raw264.7, 40 µM, dose 2.5-40 µM. The format is toxicity, cell-based.
Data set [8] relates to RAW264.7. Description: Immunosuppressive activity in mouse RAW264.7 cells assessed as reduction in expression of P70S6K phosphorylation at 10 to 40 uM by Western blot analysis. The format is functional, cell-based. The following applies: dose 10-40 µM. A general note: A western blot detects proteins with antibodies after separation by electrophoresis.
Data set [9] is filed under the species Mus musculus. Description: Immunosuppressive activity in C57BL/6 female mouse T Cells isolated from spleen assessed as inhibition of anti-CD3/CD28-induced IFN-gamma secretion measured after 48 hrs by ELISA based assay relative to control. The conditions noted are these: T-cell. The format is functional.
Data set [10] concerns Mus musculus. Description: Antisepsis against LPS-induced sepsis mouse multiorgan damage model model assessed as reduction in multiorgan damage at 25 to 50 mg/kg, IG measured after 24 hrs by H and E staining assay. The conditions noted are these: dose 25-50 mg/kg. It is filed as functional, organism-based.
The species named for data set [11] is Mus musculus. Put plainly: Antisepsis against LPS-induced sepsis mouse model assessed as increase in survival rate of mouse treated IG measured upto 24 hrs. The format is functional, organism-based.
Data set [12] deals with RAW264.7. Put plainly: Immunosuppressive activity in mouse RAW264.7 cells assessed as reduction in expression of ERK phosphorylation at 10 to 40 uM by Western blot analysis. It is filed as functional, cell-based. The conditions noted are these: dose 10-40 µM.
The subject of data set [13] is RAW264.7. Description: Inhibition of cytokine secretion in mouse RAW264.7 cells assessed as suppression of LPS-induced TNF-alpha at 40 uM secretion measured after 48 hrs by ELISA based assay. The format is functional, cell-based.
Data set [14] deals with RAW264.7. Put plainly: Inhibition of cytokine secretion in mouse RAW264.7 cells assessed as suppression of LPS-induced IL-6 secretion measured after 48 hrs by ELISA based assay. It is filed as functional, cell-based. The following applies: dose 2.5-40 µM.
Data set [15] deals with T-cell. Description: Inhibition of proliferation of C57BL/6 female mouse T-cells isolated from spleen. The conditions noted are these: C57BL/6, T-cell. It is filed as functional, cell-based.
The test system of data set [16] is T-cell. Put plainly: Blocked of cell cycle progression in anti-CD3/CD28 stimulated C57BL/6 female mouse T-cells isolated from spleen assessed as decrease in cells at S phase measured after 48 hrs by flow cytometry assay. The format is functional, cell-based. The conditions noted are these: dose 5-20 µM.
The subject of data set [17] is RAW264.7. Put plainly: Inhibition of cytokine secretion in mouse RAW264.7 cells assessed as suppression of LPS-induced TNF-alpha secretion measured after 48 hrs by ELISA based assay. The format is functional, cell-based. The following applies: dose 2.5-40 µM.
The test system of data set [18] is T-cell. Description: Blocked of cell cycle progression in anti-CD3/CD28 stimulated C57BL/6 female mouse T-cells isolated from spleen assessed as increase in cells at G0/G1 phase at 5 to 20 uM measured after 48 hrs by flow cytometry assay. The format is functional, cell-based. The following applies: dose 5-20 µM. (In flow cytometry, cells or beads pass a laser one at a time.)

The test system of data set [19] is RAW264.7. Description: Immunosuppressive activity in mouse RAW264.7 cells assessed as reduction in expression of JNK phosphorylation at 10 to 40 uM by Western blot analysis. The format is functional, cell-based. The following applies: dose 10-40 µM.
For data set [20], the system named is T-cell. Put plainly: Blocked of cell cycle progression in anti-CD3/CD28 stimulated C57BL/6 female mouse T-cells isolated from spleen assessed as increase in cells at G2/M phase measured after 48 hrs by flow cytometry assay. The following applies: dose 5-20 µM. It is filed as functional, cell-based.
The test system of data set [21] is T-cell. Put plainly: Inhibition of proliferation of C57BL/6 female mouse T-cells isolated from spleen at 1 uM relative to control. The conditions noted are these: C57BL/6, T-cell. It is filed as functional.
Data set [22] concerns T-cell. Description: Immunosuppressive activity in C57BL/6 female mouse T-cells isolated from spleen assessed as inhibition of LPS-induced IFN-gamma secretion at 1 uM treated for 48 hrs by ELISA based assay relative to control. It is filed as functional. The following applies: C57BL/6, T-cell.

With `CC(C)=C[C@H]1O[C@@](C)(C[C@@H]2C(=O)C(C)=C[C@H]2O)[C@@H]2C(=O)[C@@]3(O)[C@@H](C)CC[C@H]3[C@H](C)[C@@]21O`, the inhibition at 20 µM stood at 11% in data set [1] and 65.3% in data set [2]. Besides, the IC50 in data set [3] was found to be 11.9 µM.

For `CC(C)=C[C@H]1O[C@@](C)(C[C@H]2C(=O)C(C)=C[C@@H]2O)[C@@H]2C(=O)[C@@]3(O)[C@@H](C)CC[C@H]3[C@H](C)[C@@]21O`, the inhibition at 20 µM is 11.8% in data set [1] and 57.3% in [2]. Moreover, in data set [3], the IC50 amounted to 11.6 µM.

With `CC(C)=C[C@H]1O[C@@](C)(CC=O)C2=C1[C@@H](C)[C@@H]1CC[C@H](C)[C@]1(O)C2=O`, the inhibition at 20 µM is under 10% in data set [1] and 65.4% in data set [2]. For the same compound, the IC50 in [3] was 8.48 µM.

`CC(C)=C[C@H]1O[C@@](C)(C/C=C2\NC(=O)C=C2C)[C@@H]2C(=O)[C@@H]3[C@@H](CC[C@@H]3C)[C@H](C)[C@@]21O`: the inhibition at 20 µM in data set [1] was found to be 13.8%; in data set [2], 56.4%. For the same compound, the IC50 in [3] stood at 19.6 µM.

As for `CC(C)=CC(=O)[C@@]1(O)[C@@H](C)[C@@H]2CC[C@H](C)[C@H]2C(=O)[C@]1(O)[C@H](C)CC[C@@H]1OC(=O)C=C1C`, the result in [4], in data set [5], in data set [8], in data set [9], in [10] and in data set [12] was Active. Besides, the inhibition result in data set [6] and in data set [13] was “Active” each time. The Activity result in data set [7] was “Non-Toxic”; in data set [11], “Dose-Dependent Effect”. In addition, the inhibition at 20 µM in data set [1] turned out to be 14.7%; in [2] it was 54.3%. Further, the IC50 in data set [3] was 9.94 µM.

For the compound `CC(C)=C[C@H]1O[C@@](C)(CCc2occc2C)[C@@H]2C(=O)[C@]3(O)[C@@H](C)CC[C@H]3[C@H](C)[C@@]21O`, the inhibition at 20 µM in data set [1] is under 10%; in [2], 56.8%. Also, in data set [3], the IC50 was 9.15 µM.

Take `CC(C)=C[C@H]1O[C@@](C)(C/C=C2\NC(=O)C=C2C)C2=C1[C@@H](C)[C@@H]1CC[C@H](C)[C@]1(O)C2=O`: the inhibition at 20 µM was 10.4% in [1] and 66% in data set [2]. Further, the IC50 in [3] was 26.8 µM.

`CC(C)=C[C@H]1O[C@@](C)(CCc2occc2C)C2=C1[C@@H](C)[C@@H]1CC[C@H](C)[C@]1(O)C2=O`: the values for the Activity entry in data set [7], in data set [16] and in data set [20] were “Non-Toxic”, “Dose-Dependent Effect” and “Dose-Dependent Effect”, respectively. Further, the outcome in data set [8], in data set [9], in [18], in [19] and in [12] was Active. The inhibition entry in data set [14] and in [17] was “Dose-Dependent Effect” each time. In addition, the IC50 in data set [15] was found to be 32.5 µM; in data set [3], 4.94 µM. Also, the inhibition at 20 µM in data set [1] was determined as 39.8%; in data set [2] it was 73.7%.

On to `C/C=C/C[C@@H](C)[C@@H](O)[C@H]1C(=O)N[C@@H](CC)C(=O)N(C)CC(=O)N(C)[C@@H](CC(C)C)C(=O)N[C@@H](C(C)C)C(=O)N(C)[C@@H](CC(C)C)C(=O)N[C@@H](C)C(=O)N[C@H](C)C(=O)N(C)[C@@H](CC(C)C)C(=O)N(C)[C@@H](CC(C)C)C(=O)N(C)[C@@H](C(C)C)C(=O)N1C` [CYCLOSPORINE], for which the inhibition at 1 µM in [21] worked out at 36.7%; in data set [22] it was 99.2%.

For `CC(C)=C[C@H]1O[C@@](C)(CCc2occc2C)[C@@H]2C(=O)[C@H]3[C@@H](CC[C@@H]3C)[C@H](C)[C@@]21O`, the inhibition at 20 µM was found to be 12.3% in data set [1] and 63.9% in data set [2]. The IC50 in [3] is 9.8 µM.

Turning to `CC(C)=C[C@H]1O[C@@](C)(CCc2occc2C)[C@@H]2C(=O)[C@@H]3[C@@H](CC[C@@H]3C)[C@H](C)[C@@]21O`, the inhibition at 20 µM is under 10% in [1] and 53.7% in data set [2]. The IC50 in data set [3] is 19.9 µM.

In the case of `CC(C)=CC1O[C@@]2(C)CC[C@]3(OC(=O)C=C3C)O[C@]13[C@H]2C(=O)[C@H]1[C@@H](CC[C@@H]1C)[C@@H]3C` (some centres undefined), the IC50 is 25.8 µM in data set [15] and 12.6 µM in [3]. For the same compound, the inhibition at 20 µM came out at 51.5% in data set [1] and 69.4% in data set [2].

As to `CC(C)=CC(=O)[C@@]1(O)[C@@H](C)[C@@H]2CC[C@H](C)[C@H]2C(=O)[C@@]12O[C@@H](c1occc1C)C[C@H]2C`, the values for the inhibition at 20 µM in data set [1] and in data set [2] were under 10% and 63.4%, respectively. In addition, the IC50 in data set [3] stood at 16.7 µM.

In the case of `CC(C)=C[C@H]1O[C@@](C)(CC[C@@H]2OC(=O)C=C2C)[C@@H]2C(=O)[C@H]3[C@@H](CC[C@@H]3C)[C@H](C)[C@@]21O`, the inhibition at 20 µM in data set [1] turned out to be 26.7%; in data set [2], 57.6%. Further, in data set [3], the half-maximal inhibitory concentration (IC50) is 23.6 µM.

As to `CC(C)=CC(=O)[C@@]1(O)[C@@H](C)[C@@H]2CC[C@H](C)[C@H]2C(=O)[C@]1(O)[C@H](C)CCc1occc1C`, the inhibition at 20 µM in [1] came out at 27.9%; in data set [2], 73.6%. Also, the IC50 in data set [3] was 5.59 µM.

On to `CC(C)=C[C@H]1O[C@@]2(C)C[C@H](c3occc3C)O[C@]13[C@H]2C(=O)[C@@]1(O)[C@@H](C)CC[C@H]1[C@@H]3C`, for which the inhibition at 20 µM in [1] was 18.6%; in data set [2], 57.7%. The IC50 in [3] stood at 22 µM.
